Laboratory results taken from patent publication US20250313546A1, “NUCLEIC ACID BINDERS” (UNIVERSITY OF STRATHCLYDE, priority 2022, published 2025).
Converted amounts (≈) assume the structure as drawn.

Columns and labels:
[1] = test system: Staphylococcus aureus (ATCC 43300); assay: Antibacterial MIC, broth microdilution (CLSI); assay type: cell-based; details: for MIC80: Staphylococcus aureus, ATCC43300, read-out: MIC80 S. aureus; for S. aureus Selectivity Indices, Group: Alkyl Amidines and NH Pyrroles
[2] = test system: Enterococcus faecalis (ATCC 51299); assay: Antibacterial MIC, broth microdilution (CLSI); assay type: cell-based; details: for MIC80: Enterococcus faecalis, ATCC51299, read-out: MIC80 E. faecalis; for E. faecalis Selectivity Indices, Group: SI, IC50 (μM)/MIC80 (μM), HEK293 cytotoxicity, Alkyl Amidines and NH Pyrroles
[3] = test system: Escherichia coli (ATCC 25922); assay: Antibacterial MIC, broth microdilution (CLSI); assay type: cell-based; details: Escherichia coli, ATCC25922; read-out: MIC80 E. coli
T. vaginalis = assay: Trichomonas resorufin assay; assay type: cell-based; details: for IC50: Trichomonas vaginalis, read-out: IC50 T. vaginalis
[4] = test system: Genomic double stranded DNA (salmon); assay: Fluorescence intercalator displacement (FID) assay, SYBR-safe probe; details: 20 μM compound, 30° C., lower % = stronger binding
Method in brief: (§1)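 Probe displacement was measured at 30 °C in 1 mM phosphate pH 7.4 containing SybrSafe (12500-fold dilution), 3.76 ng/mL nucleic acid (salmon dsDNA or polyAU dsRNA) and 20 μM compound. Fluorescence loss is normalised between probe-only and probe-plus-nucleic-acid controls.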

[5] = test system: PolyAU double stranded RNA; assay: as above; details: 20 μM compound, 30° C., lower % = stronger binding
Method in brief: as §1

C. neoformans (F10025) = details: Cryptococcus neoformans, read-out: MIC99 C. neoformans
Description: (§2) The Minimum Inhibitory Concentration (MIC, at 99% inhibition) of the compounds was determined using the broth microdilution method as recommended by EUCAST (EUCAST Definitive Document E.DEF 9.3.2, Method for the determination of broth dilution minimum inhibitory concentrations of antifungal agents for conidia forming moulds and EUCAST Definitive Document E.DEF 7.3.2 Method for the determination of broth dilution minimum inhibitory concentrations of antifungal agents for yeasts).

[6] = test system: A. fumigatus A1160 (MFIG001); details: Aspergillus fumigatus, read-out: MIC99 A. fumigatus A1160
Description: as §2

[7] = test system: Candida glabrata (ACPF3309); details: Nakaseomyces glabratus, read-out: MIC99 Candida glabrata
Description: as §2

[8] = test system: Rhizopus arrhizus (NEQAS12.35321); details: read-out: MIC99 Rhizopus arrhizus
Description: as §2

[9] = SI, IC50 (μM)/MIC80 (μM), HEK293 cytotoxicity

Row | Compound | MIC80 [1] | MIC80 [2] | E. faecalis Selectivity Indices, Group [2] | MIC80 [3] | IC50 (T. vaginalis) | % Normalised Fluorescence with gDNA [4] | % Normalised Fluorescence with polyAU RNA [5] | MIC99 (C. neoformans (F10025)) | MIC99 [6] | MIC99 [7] | S. aureus Selectivity Indices, Group [1, 9] | S. aureus Selectivity Index (SI) ([1]; SI, IC50 (μM)/MIC80 (μM), HEK293 cytotoxicity, numeric value) | T. vaginalis Selectivity Indices, Group (T. vaginalis; SI, IC50 (μM)/IC50 (μM), HEK293 cytotoxicity, Alkyl Amidines and NH Pyrroles) | MIC99 [8]
1 | CCNC(=N)CCNC(=O)c1cc(NC(=O)c2cc(NC(=O)c3ccc(/C=C/c4cccc(OC)c4)cc3)cn2C)cn1C [Ia22, (E)-N-(3-(ethylamino)-3-iminopropyl)-4-(4-(4-(3-methoxystyryl)benzamido)-1-methyl-1H-pyrrole-2-carboxamido)-1-methyl-1H-pyrrole-2-carboxamide] | 5 to 25 µM (≈ 2.98 to 14.9 µg/mL) | < 5 µM | C (Group C: 5 < SI <= 10) | > 100 µM | 1 to 5 µM | 3% | 5% | 25 to 50 µg/mL (≈ 42 to 83.9 µM) | > 50 µg/mL | 5 to 25 µg/mL (≈ 8.39 to 42 µM) |  |  |  | 
2 | CCCCCCC/N=C(\CCNC(=O)c1cc(NC(=O)c2cc(NC(=O)c3ccc(/C=C/c4ccc(N(C)C)cc4)nc3)cn2C)cn1C)NCCCCCCC [Ia33, 6-((E)-4-(dimethylamino)styryl)-N-(5-((5-(((E)-3-(heptylamino)-3-(heptylimino)propyl)carbamoyl)-1-methyl-1H-pyrrol-3-yl)carbamoyl)-1-methyl-1H-pyrrol-3-yl)nicotinamide] | 5 to 25 µM (≈ 3.89 to 19.5 µg/mL) | 25 to 100 µM (≈ 19.5 to 77.8 µg/mL) |  | > 100 µM | 5 to 50 µM | 49% | 24% | 25 to 50 µg/mL (≈ 32.1 to 64.3 µM) | > 50 µg/mL | > 50 µg/mL |  |  |  | 
3 | CCCCCCCCCNC(=N)CCNC(=O)c1cc(NC(=O)c2cc(NC(=O)c3ccc(/C=C/c4cnc5ccccc5c4)cc3)cn2C)cn1C [Ia36, (E)-N-(3-imino-3-(nonylamino)propyl)-1-methyl-4-(1-methyl-4-(4-(2-(quinolin-3-yl)vinyl)benzamido)-1H-pyrrole-2-carboxamido)-1H-pyrrole-2-carboxamide] | 5 to 25 µM (≈ 3.57 to 17.9 µg/mL) | 25 to 100 µM (≈ 17.9 to 71.5 µg/mL) |  | > 100 µM | 5 to 50 µM | 11% | 4% | > 50 µg/mL | > 50 µg/mL | 25 to 50 µg/mL (≈ 35 to 69.9 µM) |  |  |  | 
4 | CCCCCCC/N=C(/CCNC(=O)c1cc(NC(=O)c2cc(NC(=O)c3ccc(/C=C/c4cnc5ccccc5c4)cc3)cn2C)cn1C)NCCCCCCC [Ia37, N—((Z)-3-(heptylamino)-3-(heptylimino)propyl)-1-methyl-4-(1-methyl-4-(4-((E)-2-(quinolin-3-yl)vinyl)benzamido)-1H-pyrrole-2-carboxamido)-1H-pyrrole-2-carboxamide] | 5 to 25 µM (≈ 3.93 to 19.6 µg/mL) | 25 to 100 µM (≈ 19.6 to 78.5 µg/mL) |  | > 100 µM | 5 to 50 µM | 16% | 68% | 25 to 50 µg/mL (≈ 31.8 to 63.7 µM) | > 50 µg/mL | > 50 µg/mL |  |  |  | 
5 | CCCC/N=C(\CCNC(=O)c1cc(NC(=O)c2cc(NC(=O)c3ccc(/C=C/c4cnc5ccccc5c4)cc3)cn2C)cn1C)NCCCC [Ia38, N—((E)-3-(butylamino)-3-(butylimino)propyl)-1-methyl-4-(1-methyl-4-(4-((E)-2-(quinolin-3-yl)vinyl)benzamido)-1H-pyrrole-2-carboxamido)-1H-pyrrole-2-carboxamide] | < 5 µM | 25 to 100 µM (≈ 17.5 to 70.1 µg/mL) |  | > 100 µM | 5 to 50 µM | 10% | 4% | 25 to 50 µg/mL (≈ 35.7 to 71.3 µM) | > 50 µg/mL | 5 to 25 µg/mL (≈ 7.13 to 35.7 µM) |  |  |  | 
6 | CCCC/N=C(\CCNC(=O)c1cc(NC(=O)c2cc(NC(=O)c3ccc(/C=C/c4ccc(N(C)C)cc4)nc3)cn2C)cn1C)NCCCC [Ia39, N-(5-((5-(((E)-3-(butylamino)-3-(butylimino)propyl)carbamoyl)-1-methyl-1H-pyrrol-3-yl)carbamoyl)-1-methyl-1H-pyrrol-3-yl)-6-((E)-4-(dimethylamino)styryl)nicotinamide] | < 5 µM | 25 to 100 µM (≈ 17.3 to 69.4 µg/mL) |  | > 100 µM | 5 to 50 µM | 50% | 43% | 25 to 50 µg/mL (≈ 36 to 72.1 µM) | > 50 µg/mL | 25 to 50 µg/mL (≈ 36 to 72.1 µM) |  |  |  | 
7 | Cn1cc(NC(=O)c2cc(NC(=O)c3ccc(/C=C/c4cnc5ccccc5c4)cc3)cn2C)cc1C(=O)NCCC(=N)NCCC1CCOCC1 [Ia44, (E)-N-(3-imino-3-((2-(tetrahydro-2H-pyran-4-yl)ethyl)amino)propyl)-1-methyl-4-(1-methyl-4-(4-(2-(quinolin-3-yl)vinyl)benzamido)-1H-pyrrole-2-carboxamido)-1H-pyrrole-2-carboxamide] | 5 to 25 µM (≈ 3.5 to 17.5 µg/mL) | 5 to 25 µM (≈ 3.5 to 17.5 µg/mL) |  | > 100 µM | 5 to 50 µM | 16% | 19% | 25 to 50 µg/mL (≈ 35.7 to 71.3 µM) | > 50 µg/mL | 5 to 25 µg/mL (≈ 7.13 to 35.7 µM) |  |  |  | 
8 | [H]/N=C(\CCNC(=O)c1cc(NC(=O)c2cc(NC(=O)c3ccc(C=Cc4ccc5nonc5c4)cc3)cn2C)cn1C)NCCC1CCOCC1 [Ia45, (E)-4-(4-(2-(benzo[c][1,2,5]oxadiazol-5-yl)vinyl)benzamido)-N-(5-((3-imino-3-((2-(tetrahydro-2H-pyran-4-yl)ethyl)amino)propyl)carbamoyl)-1-methyl-1H-pyrrol-3-yl)-1-methyl-1H-pyrrole-2-carboxamide] | 5 to 25 µM (≈ 3.46 to 17.3 µg/mL) | > 100 µM |  | > 100 µM | 5 to 50 µM | 9% | 3% | 5 to 25 µg/mL (≈ 7.23 to 36.1 µM) | > 50 µg/mL | 25 to 50 µg/mL (≈ 36.1 to 72.3 µM) | B (Group B: 3 < SI <= 5) |  |  | 
9 | CN1CCN(C(=N)CCNC(=O)c2cc(NC(=O)c3cc(NC(=O)c4ccc(/C=C/c5cnc6ccccc6c5)cc4)cn3C)cn2C)CC1 [Ib3, (E)-N-(3-imino-3-(4-methylpiperazin-1-yl)propyl)-1-methyl-4-(1-methyl-4-(4-(2-(quinolin-3-yl)vinyl)benzamido)-1H-pyrrole-2-carboxamido)-1H-pyrrole-2-carboxamide] | < 5 µM | 5 to 25 µM (≈ 3.36 to 16.8 µg/mL) |  | > 100 µM | 5 to 50 µM | 13% | 5% | 5 to 25 µg/mL (≈ 7.44 to 37.2 µM) | > 50 µg/mL | 5 to 25 µg/mL (≈ 7.44 to 37.2 µM) | B (Group B: 3 < SI <= 5) |  |  | 
10 | Cn1cc(NC(=O)c2cc(NC(=O)c3ccc(/C=C/c4cnc5ccccc5c4)cc3)cn2C)cc1C(=O)NCCC(=N)N1CCOCC1 [Ib5, (E)-N-(3-imino-3-morpholinopropyl)-1-methyl-4-(1-methyl-4-(4-(2-(quinolin-3-yl)vinyl)benzamido)-1H-pyrrole-2-carboxamido)-1H-pyrrole-2-carboxamide] | < 5 µM | < 5 µM | C (Group C: 5 < SI <= 10) | > 100 µM | 1 to 5 µM | 22% | 13% | 5 to 25 µg/mL (≈ 7.59 to 37.9 µM) | 5 to 25 µg/mL (≈ 7.59 to 37.9 µM) | < 5 µg/mL | D (D: SI > 10) | 27 | C (Group C: 16 < SI <= 32) | 25 to 50 µg/mL (≈ 37.9 to 75.9 µM)
11 | [H]/N=C(\CCNC(=O)c1cc(NC(=O)c2cc(NC(=O)c3ccc(C=Cc4ccc5nonc5c4)cc3)cn2C)cn1C)N1CCOCC1 [Ib6, (E)-4-(4-(2-(benzo[c][1,2,5]oxadiazol-5-yl)vinyl)benzamido)-N-(5-((3-imino-3-morpholinopropyl)carbamoyl)-1-methyl-1H-pyrrol-3-yl)-1-methyl-1H-pyrrole-2-carboxamide] | 5 to 25 µM (≈ 3.25 to 16.2 µg/mL) | 25 to 100 µM (≈ 16.2 to 65 µg/mL) |  | > 100 µM | > 50 µM | 11% | 49% | 25 to 50 µg/mL (≈ 38.5 to 77 µM) |  | 25 to 50 µg/mL (≈ 38.5 to 77 µM) |  |  |  | 5 to 25 µg/mL (≈ 7.7 to 38.5 µM)
12 | [H]/N=C(\CCNC(=O)c1cc(NC(=O)c2cc(NC(=O)c3ccc(C=Cc4ccc5nonc5c4)cc3)cn2C)cn1C)N1CCSCC1 [Ib8, (E)-4-(4-(2-(benzo[c][1,2,5]oxadiazol-5-yl)vinyl)benzamido)-N-(5-((3-imino-3-thiomorpholinopropyl)carbamoyl)-1-methyl-1H-pyrrol-3-yl)-1-methyl-1H-pyrrole-2-carboxamide] | < 5 µM | < 5 µM |  | > 100 µM | 1 to 5 µM | 15% | 4% | 5 to 25 µg/mL (≈ 7.51 to 37.5 µM) | 5 to 25 µg/mL (≈ 7.51 to 37.5 µM) | < 5 µg/mL |  |  |  | 5 to 25 µg/mL (≈ 7.51 to 37.5 µM)
